{
  "source": "patent US20170266222A1",
  "about": "“MODULATION OF CHRFAM7A FOR ANTI-INFLAMMATORY THERAPIES” (THE REGENTS OF THE UNIVERSITY OF CALIFORNIA, priority 2016, published 2017)",
  "key": {"CHRFAM7A gene expression": {"system": "CHRFAM7A gene expression", "assay": "qPCR of CHRFAM7A gene expression in gut epithelial cells treated with LPS", "format": "cell-based, human", "procedure": "(§1) All epithelial cancer cell lines were originally purchased from American Type Culture Collection and propagated as instructed. Normal human small intestine epithelial cells (FHs-Int-74) were also obtained from the ATCC (CCL-241). Cells were seeded at 2×10^6 in 6-well tissue culture plates the day before the experiment. As indicated, cells were either harvested directly for total RNA preparation, processed for transient transfection, or treated with LPS (CAT# L4391, Sigma) at 100 ng/ml for 3 hours. At the end of the incubation with LPS, cells were harvested and used for analyses of gene expression.\n(§2) Total RNA was prepared using RNeasy kit (Qiagen) and was quantitated using Nanodrop Spectrophotometer. One μg total RNA was reverse transcribed using iScript cDNA synthesis kit (BioRad) in a 20 μl reaction. Of the 20 μl cDNA, one μl was used for RT-PCR or real-time qPCR.\n(§3) RT-PCR was performed in a 50 μl reaction containing 45 μl PCR blue mix (Invitrogen), 1 μl of each primer (10 μM), 1 μl cDNA, and 2 μl water. The cycling conditions were: 94° C. for 4 minutes followed by 35 cycles of 94° C. for 30 seconds, 60° C. for 30 seconds, and 72° C. for 60 seconds and a final extension at 72° C. for 5 minutes. Ten μl of each PCR products were resolved on a 2% agarose gel and images were acquired using Alpha Innotech imaging system. Real-time qPCR was performed in a 25 μl reaction containing 12.5 μl 2×CYBR Green PCR Master Mix (BioRad), 0.5 μl of each primer (10 μM), 1 μl cDNA, and 10.5 μl water. PCR cycling conditions were: 95° C. for 10 minutes followed by 45 cycles of 94° C. for 25 seconds, 60° C. for 25 seconds, and 72° C. for 40 seconds. Primer efficiency for CHRFAM7A and CHRNA7 were 100% and 94% respectively. Expression of CHRNA7 and CHRFAM7A was normalized to that of GAPDH using ΔΔCt method.\nPrimers for CHRFAM7A were designed to hybridize with the variant 1 transcript by selecting sequences that bridge CHRFAM7A and CHRNA7 and therefore unique to CHRFAM7A and not available in FAM7A or CHRNA7A alone: Sense: 5′-ATAGCTGCAAACTGCGATA-3′ (SEQ ID NO:11), Anti-sense: 5′-[…]-3′(SEQ ID NO:12)."}, "CHRNA7 gene expression": {"system": "CHRNA7 gene expression", "assay": "qPCR of CHRNA7 gene expression in gut epithelial cells treated with LPS", "format": "cell-based, human", "conditions": "3 hours", "procedure": "as §1, §2, §3\nPrimers for CHRNA7 were designed to hybridize with both variant 1 and 2 transcripts of CHRNA7 by selecting sequences present in CHRNA7 but absent from CHRFAM7A for amplification: Sense, 5′-acATGcgctgctcgccggga-3′ (SEQ ID NO:13), Anti-sense, 5′-[…]-3′ (SEQ ID NO:14)."}, "CHRNA7 and CHRFAM7A": {"system": "CHRNA7 and CHRFAM7A", "conditions": "undifferentiated human THP1 cells and human macrophages; cited from earlier work"}, "[1]": {"system": "CHRFAM7A/CHRNA7 gene expression", "assay": "qRT-PCR ratio of CHRFAM7A to CHRNA7 in leukocyte cell lines treated with LPS", "format": "cell-based, human", "conditions": "100 ng/ml LPS, 3 hours", "excerpt": "All cell lines were originally purchased from ATCC and/or acquired through the UCSD Department of Surgery, Division of Trauma, Burns and Acute Care Surgery Cell Repository. Thawed cells were washed in RPMI culture media containing 10% FCS, the pellet reconstituted in culture media and cells plated into six-well tissue culture plates. All cells were washed 48 hrs later and allowed to grow to 90% confluence and propagated with trypsin digestion as needed. For transduction studies, cells were seeded at 2×10^6 in 6-well tissue culture plates the day before the experiment. As indicated in each experiment, cells were harvested directly from the culture dishes for total RNA preparation, processed for stable or transient transfection, or treated with 100 ng/ml LPS (CAT# L4391, Sigma) for 3 hours. At the end of incubations, cells were harvested, total RNA isolated and the cDNA generated (see below) used for analyses of gene expression.\nTotal RNA was prepared from cell lysates using the RNeasy kit (Qiagen, San Diego Calif.) and was quantified using a Nanodrop Spectrophotometer. […]\nRT-PCR and Quantitative RT-PCR for CHRFAM7A and CHRNA7: RT-PCR was performed in a 50 μl reaction containing 45 μl PCR blue mix (Invitrogen), 1 μl of each primer (10 μM), 1 μl cDNA, and 2 μl water. […]"}, "CHRFAM7A promoter [2]": {"system": "CHRFAM7A promoter", "assay": "CHRFAM7A promoter luciferase reporter in THP1 cells", "format": "cell-based, human", "conditions": "THP1 cells pre-treated with 100 ng/ml LPS", "excerpt": "(§4) Analyses of the CHRFAM7A promoter: The putative CHRFAM7A promoter region spanning from −2363 to +22 relative to the open reading frame ATG start codon was amplified by PCR of genomic DNA isolated from HEK293 cells. The longest fragment was cloned into pGL4 promoter-less luciferase reporter plasmid (Promega) according to the manufacturers specifications and the resulting plasmid, pGL4-CHRFAM7A (˜2400) was confirmed by DNA sequencing and thereafter referred to f2400 to reflect the size of the fragment. […]\n(§5) The fragments generated were cloned into the pGL4 vector to create plasmids f1800, f1000, and f500, which were each sequenced to confirm their identity. These plasmids were then transiently transfected into THP1 cells as described below, and luciferase activity was analyzed 30 hours after transfection following the manufacturer's instructions (Promega). […]\nTHP1 cells, cultured in RPMI1640 supplemented with 1× Glutamax and 1× Penicillin/Streptomycin, were seeded at 5×10^5 per well in a 24-well plate two hours before transfection. […] The lysate was spun down and 10 μl of the supernatant was used for luciferase assay on POLARstar Omega plate reader (BMG LABTECH). Luciferase activity normalized to protein concentration was expressed as fold changes over that of pGL4 transfected cells."}, "CHRFAM7A promoter [3]": {"system": "CHRFAM7A promoter", "assay": "CHRFAM7A promoter luciferase reporter in FHs cells", "format": "cell-based, human", "conditions": "LPS 100 ng/ml", "excerpt": "as §4, with “The” for “Analyses of the CHRFAM7A promoter: The”, “(2400)” for “(˜2400)”, “F2400” for “f2400”\nas §5, with “FHs” for “THP1”\nTransfections of FHs cells for luciferase activity: The normal human small intestine FHs cells were cultured in 10% DMEM/F12 supplemented with 1× Glutamax, 1× Penicillin/Streptomyxin, and 30 ng/ml EGF and seeded at 1×10^5 per well in a 12-well plate the day before transfection. […] The lysate was spun down and 10 μl of the supernatant was used for luciferase assay on POLARstar Omega plate reader (BMG LABTECH)."}},
  "note": "“Also recorded” adds a separate entry of the source.",
  "data": [
    {"substance": "lipopolysaccharide [LPS]", "values": [
      {"measurement": "CHRFAM7A gene expression by q-PCR", "setting": "CHRFAM7A gene expression; FHs cells, 100 ng/ml LPS, 3 hr", "value": "increases"},
      {"measurement": "relative expression of CHRFAM7A over CHRNA7", "setting": "CHRFAM7A gene expression; HCT116T, KM20L and T84 cells, LPS", "value": "unchanged"},
      {"measurement": "change of CHRFAM7A gene expression", "setting": "CHRFAM7A gene expression; KM12 and T84 cells, 100 ng/ml LPS", "value": "decreased"},
      {"measurement": "increase of CHRFAM7A gene expression", "setting": "CHRFAM7A gene expression; epithelial cells, 100 ng/ml LPS, 3 hour treatment", "value": "~1000", "unit": "fold"},
      {"measurement": "increase of relative expression of CHRFAM7A over CHRNA7", "setting": "CHRFAM7A gene expression; gut epithelial cells, depending on the cell line, LPS", "value": "2-200 fold"},
      {"measurement": "increase in CHRNA7 gene expression", "setting": "CHRNA7 gene expression; CaCo2, KM12, KM20, SW, Colo205 cells, 100 ng LPS", "value": "less than two-fold"},
      {"measurement": "decrease in CHRNA7 gene expression", "setting": "CHRNA7 gene expression; FHs and T84 cells, 100 ng LPS", "value": 30, "unit": "%"},
      {"measurement": "effect on CHRNA7 gene expression", "setting": "CHRNA7 gene expression; epithelial cells, 100 ng/ml LPS", "value": "little to no effect; also recorded: little effect"},
      {"measurement": "effect on CHRNA7 and CHRFAM7A", "setting": "CHRNA7 and CHRFAM7A", "value": "inhibits"},
      {"measurement": "ratio of CHRFAM7A to CHRNA7 gene expression", "setting": "[1]", "value": "unaffected; also recorded: both genes respond equally"},
      {"measurement": "luciferase signal of CHRFAM7A 5'UTR fragments", "setting": "CHRFAM7A promoter [2]", "value": "decreased; also recorded: inhibited"},
      {"measurement": "luciferase activity profile of CHRFAM7A UTR fragments", "setting": "CHRFAM7A promoter [3]", "value": "very similar profile"}
    ]}
  ]
}
